Patent publication US8541588B2, “Sulfonamide derivatives” (Pfizer Limited, priority 2009, dated 2013)

Molecular target: T1, Nav1.7 (or SCN9A) channel; HEK cells stably transfected with hSCN9A (Homo sapiens, UniProt Q15858)
T1 construct: expressed in transfected cells
Assay: Nav1.7 block, PatchXpress 7000 automated whole-cell voltage clamp, estimated IC50 (EIC50)
Assay type: cell-based
Conditions: estimated IC50; hSCN9A HEK cells, PatchXpress platform; Examples 815-1040

T1 sequence (Q15858 whole entry): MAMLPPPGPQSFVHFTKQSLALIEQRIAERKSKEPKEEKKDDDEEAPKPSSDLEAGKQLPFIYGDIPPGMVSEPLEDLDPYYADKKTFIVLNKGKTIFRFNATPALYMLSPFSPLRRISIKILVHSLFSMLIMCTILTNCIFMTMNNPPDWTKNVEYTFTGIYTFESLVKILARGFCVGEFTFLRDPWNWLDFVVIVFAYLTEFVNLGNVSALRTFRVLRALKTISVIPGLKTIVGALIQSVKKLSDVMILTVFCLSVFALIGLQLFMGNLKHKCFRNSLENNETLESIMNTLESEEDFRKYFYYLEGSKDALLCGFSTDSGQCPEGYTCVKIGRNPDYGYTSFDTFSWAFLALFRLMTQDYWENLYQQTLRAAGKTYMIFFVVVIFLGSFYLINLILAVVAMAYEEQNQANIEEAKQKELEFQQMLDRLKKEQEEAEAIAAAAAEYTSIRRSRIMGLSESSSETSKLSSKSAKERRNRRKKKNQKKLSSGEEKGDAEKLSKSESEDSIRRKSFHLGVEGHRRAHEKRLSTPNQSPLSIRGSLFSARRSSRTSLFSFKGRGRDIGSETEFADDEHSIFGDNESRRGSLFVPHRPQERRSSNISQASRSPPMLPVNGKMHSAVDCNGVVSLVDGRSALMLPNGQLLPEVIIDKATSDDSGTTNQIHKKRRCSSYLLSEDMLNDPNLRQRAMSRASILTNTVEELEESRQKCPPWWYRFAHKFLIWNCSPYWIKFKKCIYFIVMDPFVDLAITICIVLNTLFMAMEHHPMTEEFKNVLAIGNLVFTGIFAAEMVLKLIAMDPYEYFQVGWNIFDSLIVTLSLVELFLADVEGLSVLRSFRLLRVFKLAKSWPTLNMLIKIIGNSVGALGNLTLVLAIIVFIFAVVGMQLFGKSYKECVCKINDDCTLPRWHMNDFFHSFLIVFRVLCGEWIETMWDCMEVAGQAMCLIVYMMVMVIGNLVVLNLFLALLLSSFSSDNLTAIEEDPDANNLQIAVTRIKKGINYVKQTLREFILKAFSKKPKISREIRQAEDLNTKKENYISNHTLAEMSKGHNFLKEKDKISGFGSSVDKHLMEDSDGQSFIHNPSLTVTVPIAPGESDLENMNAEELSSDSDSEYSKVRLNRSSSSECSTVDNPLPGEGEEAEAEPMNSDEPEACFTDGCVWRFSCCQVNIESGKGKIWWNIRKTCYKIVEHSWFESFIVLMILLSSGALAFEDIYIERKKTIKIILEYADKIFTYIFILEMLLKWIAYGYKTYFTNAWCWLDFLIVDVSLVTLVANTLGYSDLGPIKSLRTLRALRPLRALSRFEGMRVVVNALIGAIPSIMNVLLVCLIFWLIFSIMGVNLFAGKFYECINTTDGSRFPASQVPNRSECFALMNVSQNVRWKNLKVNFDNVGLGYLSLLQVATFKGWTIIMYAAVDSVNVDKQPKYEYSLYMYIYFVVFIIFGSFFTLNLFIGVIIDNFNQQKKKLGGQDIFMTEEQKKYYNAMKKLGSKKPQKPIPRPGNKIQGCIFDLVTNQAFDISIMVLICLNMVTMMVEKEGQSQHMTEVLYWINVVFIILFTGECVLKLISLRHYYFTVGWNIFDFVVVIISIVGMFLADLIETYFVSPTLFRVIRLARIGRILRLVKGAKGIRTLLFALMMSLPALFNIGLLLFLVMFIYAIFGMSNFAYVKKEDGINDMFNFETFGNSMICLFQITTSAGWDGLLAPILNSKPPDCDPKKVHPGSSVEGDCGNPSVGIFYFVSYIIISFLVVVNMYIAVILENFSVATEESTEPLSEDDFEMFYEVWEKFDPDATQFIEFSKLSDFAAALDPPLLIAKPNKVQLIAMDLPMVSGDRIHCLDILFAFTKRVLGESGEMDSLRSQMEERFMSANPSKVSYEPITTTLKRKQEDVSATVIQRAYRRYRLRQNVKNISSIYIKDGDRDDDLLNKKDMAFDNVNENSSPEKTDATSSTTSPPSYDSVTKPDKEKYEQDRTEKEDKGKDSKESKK

SMILES | IC50
O=S(=O)(Nc1cscn1)c1cc(F)c(Oc2ccc(C(F)(F)F)cc2-c2ccnnc2)cc1F [Example 954, 2,5-difluoro-4-[2-pyridazin-4-yl-4-(trifluoromethyl)phenoxy]-N-1,3-thiazol-4-ylbenzenesulfonamide] | 240 nM
Cn1nccc1-c1cc(Cl)ccc1Oc1ccc(S(=O)(=O)Nc2ncccn2)cc1Cl [Example 955, 3-chloro-4-[4-chloro-2-(1-methyl-1H-pyrazol-5-yl)phenoxy]-N-pyrimidin-2-ylbenzenesulfonamide] | 76 nM
O=S(=O)(Nc1nncs1)c1cc(Cl)c(Oc2ccc(Cl)c(F)c2-c2ccnnc2)cc1F [Example 956, 5-chloro-4-(4-chloro-3-fluoro-2-pyridazin-4-ylphenoxy)-2-fluoro-N-1,3,4-thiadiazol-2-ylbenzenesulfonamide] | 130 nM
O=S(=O)(Nc1nncs1)c1cc(Cl)c(Oc2cc(F)c(OC(F)(F)F)cc2-c2ccnnc2)cc1F [Example 963, 5-chloro-2-fluoro-4-[5-fluoro-2-pyridazin-4-yl-4-(trifluoromethoxy)phenoxy]-N-1,3,4-thiadiazol-2-ylbenzenesulfonamide] | 15 nM
O=S(=O)(Nc1nncs1)c1cc(Cl)c(Oc2cc(OC(F)(F)F)c(F)cc2-c2ccnnc2)cc1F [Example 965, 5-chloro-2-fluoro-4-[4-fluoro-2-pyridazin-4-yl-5-(trifluoromethoxy)phenoxy]-N-1,3,4-thiadiazol-2-ylbenzenesulfonamide] | 25 nM
O=S(=O)(Nc1nncs1)c1cc(Cl)c(Oc2cc(OC(F)(F)F)ccc2-c2ccnnc2)cc1F [Example 966, 5-chloro-2-fluoro-4-[2-pyridazin-4-yl-5-(trifluoromethoxy)phenoxy]-N-1,3,4-thiadiazol-2-ylbenzenesulfonamide] | 40 nM
CN1CC(n2nccc2-c2cc(Cl)ccc2Oc2ncc(S(=O)(=O)Nc3ncns3)cc2Cl)C1 [Example 968, 5-chloro-6-{4-chloro-2-[1-(1-methylazetidin-3-yl)-1H-pyrazol-5-yl]phenoxy}-N-1,2,4-thiadiazol-5-ylpyridine-3-sulfonamide] | 2000 nM
O=S(=O)(Nc1ncns1)c1cc(F)c(Oc2ccc(Cl)cc2-c2cnco2)cc1F [Example 970, 4-[4-chloro-2-(1,3-oxazol-5-yl)phenoxy]-2,5-difluoro-N-1,2,4-thiadiazol-5-ylbenzenesulfonamide] | 17 nM
Nc1cc(-c2cc(F)ccc2Oc2cc(F)c(S(=O)(=O)Nc3ccncn3)cc2Cl)ccn1 [Example 972, 4-[2-(2-aminopyridin-4-yl)-4-fluorophenoxy]-5-chloro-2-fluoro-N-pyrimidin-4-ylbenzenesulfonamide] | 25 nM
Nc1n[nH]cc1-c1cc(Cl)ccc1Oc1ccc(S(=O)(=O)Nc2ccncn2)cc1Cl [Example 973, 4-[2-(3-amino-1H-pyrazol-4-yl)-4-chlorophenoxy]-3-chloro-N-pyrimidin-4-ylbenzenesulfonamide] | 25 nM
CCN1CC(n2nccc2-c2cc(Cl)ccc2Oc2cc(F)c(S(=O)(=O)Nc3ncns3)cc2F)C1 [Example 975, 4-{4-chloro-2-[1-(1-ethylazetidin-3-yl)-1H-pyrazol-5-yl]phenoxy}-2,5-difluoro-N-1,2,4-thiadiazol-5-ylbenzenesulfonamide] | 1.5 nM
Cc1nn(C(C)(C)C)cc1-c1cc(Cl)ccc1Oc1cc(F)c(S(=O)(=O)Nc2nncs2)cc1Cl [Example 982, 4-[2-(1-tert-butyl-3-methyl-1H-pyrazol-4-yl)-4-chlorophenoxy]-5-chloro-2-fluoro-N-1,3,4-thiadiazol-2-ylbenzenesulfonamide] | >300 nM
Cc1n[nH]cc1-c1ccccc1Oc1ccc(S(=O)(=O)Nc2nccs2)cc1C(N)=O [Example 983, 2-[2-(3-methyl-1H-pyrazol-4-yl)phenoxy]-5-[(1,3-thiazol-2-ylamino)sulfonyl]benzamide] | 2700 nM
CCOc1n[nH]cc1-c1cc(Cl)ccc1Oc1cc(F)c(S(=O)(=O)Nc2cscn2)cc1F [Example 984, 4-[4-chloro-2-(3-ethoxy-1H-pyrazol-4-yl)phenoxy]-2,5-difluoro-N-1,3-thiazol-4-ylbenzenesulfonamide] | 560 nM
CC(=O)N1CC(n2nccc2-c2cc(F)ccc2Oc2cc(F)c(S(=O)(=O)Nc3cscn3)cc2Cl)C1 [Example 989, 4-{2-[1-(1-acetylazetidin-3-yl)-1H-pyrazol-5-yl]-4-fluorophenoxy}-5-chloro-2-fluoro-N-1,3-thiazol-4-ylbenzenesulfonamide] | 950 nM

Continued, values first:

IC50 | SMILES
22 nM | N#Cc1cc(S(=O)(=O)Nc2ncns2)ccc1Oc1cc(OC(F)(F)F)ccc1-c1ccnnc1 [Example 957, 3-cyano-4-[2-pyridazin-4-yl-5-(trifluoromethoxy)phenoxy]-N-1,2,4-thiadiazol-5-ylbenzenesulfonamide]
5.9 nM | N#Cc1cc(S(=O)(=O)Nc2ncns2)ccc1Oc1cc(F)c(OC(F)(F)F)cc1-c1ccnnc1 [Example 958, 3-cyano-4-[5-fluoro-2-pyridazin-4-yl-4-(trifluoromethoxy)phenoxy]-N-1,2,4-thiadiazol-5-ylbenzenesulfonamide]
4 nM | N#Cc1cc(S(=O)(=O)Nc2ncns2)ccc1Oc1ccc(C(F)(F)F)cc1-c1ccncc1 [Example 960, 3-cyano-4-[2-pyridin-4-yl-4-(trifluoromethyl)phenoxy]-N-1,2,4-thiadiazol-5-ylbenzenesulfonamide]
7.9 nM | Cc1nocc1-c1cc(Cl)ccc1Oc1ccc(S(=O)(=O)Nc2ncns2)cc1C#N [Example 961, 4-[4-chloro-2-(3-methylisoxazol-4-yl)phenoxy]-3-cyano-N-1,2,4-thiadiazol-5-ylbenzenesulfonamide]
9.9 nM | N#Cc1cc(S(=O)(=O)Nc2cscn2)ccc1Oc1ccc(OC(F)(F)F)cc1-c1ccnn1C1CNC1 [Example 962, 4-[2-(1-azetidin-3-yl-1H-pyrazol-5-yl)-4-(trifluoromethoxy)phenoxy]-3-cyano-N-1,3-thiazol-4-ylbenzenesulfonamide]
21 nM | N#Cc1cc(S(=O)(=O)Nc2ncns2)ccc1Oc1cc(OC(F)(F)F)c(F)cc1-c1ccnnc1 [Example 964, 3-cyano-4-[4-fluoro-2-pyridazin-4-yl-5-(trifluoromethoxy)phenoxy]-N-1,2,4-thiadiazol-5-ylbenzenesulfonamide]
27 nM | N#Cc1cc(S(=O)(=O)Nc2ncns2)ccc1Oc1ccc(Cl)cc1-c1cnco1 [Example 967, 4-[4-chloro-2-(1,3-oxazol-5-yl)phenoxy]-3-cyano-N-1,2,4-thiadiazol-5-ylbenzenesulfonamide]
4.1 nM | N#Cc1cc(S(=O)(=O)Nc2cscn2)ccc1Oc1ccc(C(F)(F)F)cc1-c1ccnn1C1CNC1 [Example 969, 4-[2-(1-azetidin-3-yl-1H-pyrazol-5-yl)-4-(trifluoromethyl)phenoxy]-3-cyano-N-1,3-thiazol-4-ylbenzenesulfonamide]
8.5 nM | N#Cc1cc(S(=O)(=O)Nc2ncns2)ccc1Oc1cc(Cl)c(Cl)cc1-c1ccnnc1 [Example 971, 3-cyano-4-(4,5-dichloro-2-pyridazin-4-ylphenoxy)-N-1,2,4-thiadiazol-5-ylbenzenesulfonamide]
74 nM | O=S(=O)(Nc1ncns1)c1cnc(Oc2ccc(C(F)(F)F)cc2-c2ccnnc2)c(Cl)c1 [Example 974, 5-chloro-6-[2-pyridazin-4-yl-4-(trifluoromethyl)phenoxy]-N-1,2,4-thiadiazol-5-ylpyridine-3-sulfonamide]
2.5 nM | O=S(=O)(Nc1ncns1)c1ccc(Oc2ccc(C(F)(F)F)cc2-c2ccnnc2)c(C(F)(F)F)c1 [Example 976, 4-[2-pyridazin-4-yl-4-(trifluoromethyl)phenoxy]-N-1,2,4-thiadiazol-5-yl-3-(trifluoromethyl)benzenesulfonamide]
4.6 nM | Cc1cc(S(=O)(=O)Nc2ncns2)c(F)cc1Oc1ccc(C(F)(F)F)cc1-c1ccnnc1 [Example 978, 2-fluoro-5-methyl-4-[2-pyridazin-4-yl-4-(trifluoromethyl)phenoxy]-N-1,2,4-thiadiazol-5-ylbenzenesulfonamide]
110 nM | N#Cc1cc(S(=O)(=O)Nc2ncns2)ccc1Oc1ccc(C(F)(F)F)cc1-c1ccc[n+]([O-])c1 [Example 979, 3-cyano-4-[2-(1-oxidopyridin-3-yl)-4-(trifluoromethyl)phenoxy]-N-1,2,4-thiadiazol-5-ylbenzenesulfonamide]
2300 nM | N#Cc1cc(S(=O)(=O)Nc2nccs2)ccc1Oc1ccccc1-c1cncnc1 [Example 985, 3-cyano-4-(2-pyrimidin-5-ylphenoxy)-N-1,3-thiazol-2-ylbenzenesulfonamide]
>10000 nM | N#Cc1cc(S(=O)(=O)Nc2nccs2)ccc1Oc1ccc(-c2cnn(CC(F)(F)F)c2N)cc1 [Example 986, 4-{4-[5-amino-1-(2,2,2-trifluoroethyl)-1H-pyrazol-4-yl]phenoxy}-3-cyano-N-1,3-thiazol-2-ylbenzenesulfonamide]
1.1 nM | N#Cc1cc(S(=O)(=O)Nc2ncns2)ccc1Oc1ccc(C(F)(F)F)cc1-c1cccc(CN2CC[C@@H](O)C2)c1 [Example 987, 3-cyano-4-{[3′-{[(3R)-3-hydroxypyrrolidin-1-yl]methyl}-5-(trifluoromethyl)biphenyl-2-yl]oxy}-N-1,2,4-thiadiazol-5-ylbenzenesulfonamide]
0.7 nM | N#Cc1cc(S(=O)(=O)Nc2ncns2)ccc1Oc1ccc(C(F)(F)F)cc1-c1cccc(CN2CCC2)c1 [Example 988, 4-{[3′-(azetidin-1-ylmethyl)-5-(trifluoromethyl)biphenyl-2-yl]oxy}-3-cyano-N-1,2,4-thiadiazol-5-ylbenzenesulfonamide]
310 nM | N#Cc1cc(S(=O)(=O)Nc2ncc(Cl)s2)ccc1Oc1ccc(Cl)cc1-c1ccon1 [Example 990, 4-(4-chloro-2-isoxazol-3-ylphenoxy)-N-(5-chloro-1,3-thiazol-2-yl)-3-cyanobenzenesulfonamide]
>10 nM | N#Cc1cc(S(=O)(=O)Nc2ncc(Cl)s2)ccc1Oc1ccc(F)cc1-c1cccc(N)n1 [Example 991, 4-[2-(6-aminopyridin-2-yl)-4-fluorophenoxy]-N-(5-chloro-1,3-thiazol-2-yl)-3-cyanobenzenesulfonamide]
